pIC50: −log10 of the molar value.
Biological target: T1, JAK3 (recombinant human kinase domain; h-jak3(810-1124)) (Homo sapiens, UniProt P52333)
T1 construct: h-jak3(810- 1124)-sf9-c; made in house; host or cells: Sf9 insect cells
Assay: Determination of IC50 of Janus Kinase (JAK) inhibition: JAK3, radioactive end-point assay with 33P-ATP
Type: biochemical
Settings: JAK3 kinase domain; ATP 1.5 uM, peptide 50 uM, 20 minutes, room temperature, 10% DMSO; read-out: Ic50 h-jak3(810-1124)-sf9-c:no additive

T1 sequence (P52333 810-1124): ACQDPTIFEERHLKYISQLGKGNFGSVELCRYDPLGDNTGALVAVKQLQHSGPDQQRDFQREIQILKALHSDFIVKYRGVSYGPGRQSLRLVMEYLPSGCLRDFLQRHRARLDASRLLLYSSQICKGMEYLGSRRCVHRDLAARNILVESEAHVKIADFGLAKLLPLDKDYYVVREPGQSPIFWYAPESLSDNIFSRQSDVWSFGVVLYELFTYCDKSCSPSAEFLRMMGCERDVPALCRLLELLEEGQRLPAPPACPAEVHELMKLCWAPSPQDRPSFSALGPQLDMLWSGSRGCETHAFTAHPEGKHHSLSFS

CC(Cn1ccnc1)NC(=O)c1ccc(-c2cnc3[nH]cc(C(=O)N[C@@H](C)C(C)(C)C)c3n2)s1 (stereo partly drawn) [Example I-174, 2-[5-(2-Imidazol-1-yl-1-methyl-ethylcarbamoyl)-thiophen-2-yl]-5H-pyrrolo[2,3-b]pyrazine-7-carboxylic acid ((S)-1,2,2-trimethyl-propyl)-amide]
pIC50: 9.66

C[C@@H](CO)NC(=O)c1c[nH]c2ncc(C3CC3)nc12 [Example I-57, 2-Cyclopropyl-5H-pyrrolo[2,3-b]pyrazine-7-carboxylic acid ((S)-2-hydroxy-1-methyl-ethyl)-amide]
pIC50: 6.66

CC(C)NC(=O)c1c[nH]c2ncc(Oc3cccc(C(C)C)c3)nc12 [Example I-234, 2-(3-Isopropyl-phenoxy)-5H-pyrrolo[2,3-b]pyrazine-7-carboxylic acid isopropylamide]
pIC50: 6.01

C[C@H](NC(=O)c1c[nH]c2ncc(-c3ccc(C(=O)NCc4c(F)cccc4F)s3)nc12)C(C)(C)C [Example I-188, 2-[5-(2,6-Difluoro-benzylcarbamoyl)-thiophen-2-yl]-5H-pyrrolo[2,3-b]pyrazine-7-carboxylic acid ((S)-1,2,2-trimethyl-propyl)-amide]
pIC50: 9.39

C[C@H](NC(=O)c1c[nH]c2ncc(-c3ccc(C(=O)N4C5CCC4CC5)s3)nc12)C(C)(C)C [Example I-177, 2-[5-(7-Aza-bicyclo[2.2.1]heptane-7-carbonyl)-thiophen-2-yl]-5H-pyrrolo[2,3-b]pyrazine-7-carboxylic acid ((S)-1,2,2-trimethyl-propyl)-amide]
pIC50: 9.49

CC(C)c1cccc(-n2cnc(-c3cnc4[nH]cc(C(=O)N[C@@H](C)C(C)(C)C)c4n3)c2)c1 [Example I-152, 2-[1-(3-Isopropyl-phenyl)-1H-imidazol-4-yl]-5H-pyrrolo[2,3-b]pyrazine-7-carboxylic acid ((S)-1,2,2-trimethyl-propyl)-amide]
pIC50: 7.60

C[C@H](NC(=O)c1c[nH]c2ncc(Oc3ccc(F)cc3F)nc12)C(C)(C)O [Example I-125, 2-(2,4-Difluoro-phenoxy)-5H-pyrrolo[2,3-b]pyrazine-7-carboxylic acid ((S)-2-hydroxy-1,2-dimethyl-propyl)-amide]
pIC50: 6.30

C[C@@H](NC(=O)c1c[nH]c2ncc(Oc3ccc(F)cc3F)nc12)C(C)(C)C [Example I-134, 2-(2,4-Difluoro-phenoxy)-5H-pyrrolo[2,3-b]pyrazine-7-carboxylic acid ((R)-1,2,2-trimethyl-propyl)-amide]
pIC50: 6.05

Cc1csc(CNC(=O)c2ccc(-c3cnc4[nH]cc(C(=O)N[C@@H](C)C(C)(C)C)c4n3)s2)c1 [Example I-192, 2-{5-[(4-Methyl-thiophen-2-ylmethyl)-carbamoyl]-thiophen-2-yl}-5H-pyrrolo[2,3-b]pyrazine-7-carboxylic acid ((S)-1,2,2-trimethyl-propyl)-amide]
pIC50: 9.40

CC(C)(CO)CNC(=O)c1c[nH]c2ncc(N3CCCC3)nc12 [Example I-10, 2-Pyrrolidin-1-yl-5H-pyrrolo[2,3-b]pyrazine-7-carboxylic acid (3-hydroxy-2,2-dimethyl-propyl)-amide]
pIC50: 7.46

CC(NC(=O)c1c[nH]c2ncc(Oc3ccccc3F)nc12)C1CC1 (stereo not shown) [Example I-114, 2-(2-Fluoro-phenoxy)-5H-pyrrolo[2,3-b]pyrazine-7-carboxylic acid (1-cyclopropyl-ethyl)-amide]
pIC50: 7.20

CC(O)CCNC(=O)c1c[nH]c2ncc(C3CC3)nc12 (stereo not shown) [Example I-68, 2-Cyclopropyl-5H-pyrrolo[2,3-b]pyrazine-7-carboxylic acid (3-hydroxy-butyl)-amide]
pIC50: 6.45

CC1CCCC(C)N1C(=O)c1ccc(-c2cnc3[nH]cc(C(=O)N[C@@H](C)C(C)(C)C)c3n2)s1 (stereo partly drawn) [Example I-181, 2-[5-(2,6-Dimethyl-piperidine-1-carbonyl)-thiophen-2-yl]-5H-pyrrolo[2,3-b]pyrazine-7-carboxylic acid ((S)-1,2,2-trimethyl-propyl)-amide]
pIC50: 9.21

C[C@H](NC(=O)c1c[nH]c2ncc(-c3ccc(C(=O)NCC4CCCC4)s3)nc12)C(C)(C)C [Example I-168, 2-[5-(Cyclo-pentylmethyl-carbamoyl)-thiophen-2-yl]-5H-pyrrolo[2,3-b]pyrazine-7-carboxylic acid ((S)-1,2,2-trimethyl-propyl)-amide]
pIC50: 9.66

O=C(N[C@@H](CC1CCCCC1)[C@@H](O)[C@@H](O)C1CC1)c1c[nH]c2ncc(C3CC3)nc12 [Example I-88, 2-Cyclopropyl-5H-pyrrolo[2,3-b]pyrazine-7-carboxylic acid ((1S,2R,3S)-1-cyclohexylmethyl-3-cyclopropyl-2,3-dihydroxy-propyl)-amide]
pIC50: 5.85

C[C@H](NC(=O)c1c[nH]c2ncc(C3CC3)nc12)C(C)(C)C(F)(F)F [Example I-54, 2-Cyclopropyl-5H-pyrrolo[2,3-b]pyrazine-7-carboxylic acid ((S)-3,3,3-trifluoro-1,2,2-trimethyl-propyl)-amide]
pIC50: 8.26

CC(=O)NC1Cc2ccc(Oc3cnc4[nH]cc(C(=O)NC(C)C)c4n3)cc2C1 (stereo not shown) [Example I-300, 2-(2-Acetylamino-indan-5-yloxy)-5H-pyrrolo[2,3-b]pyrazine-7-carboxylic acid isopropylamide]
pIC50: 6.70

CC(C)(C)CNC(=O)c1c[nH]c2ncc(C3CC3)nc12 [Example I-55, 2-Cyclopropyl-5H-pyrrolo[2,3-b]pyrazine-7-carboxylic acid (2,2-dimethyl-propyl)-amide]
pIC50: 7.53

C[C@H](NC(=O)c1c[nH]c2ncc(-c3ccc(C(=O)Nc4ccccc4)s3)nc12)C(C)(C)C [Example I-201, 2-(5-Phenylcarbamoyl-thiophen-2-yl)-5H-pyrrolo[2,3-b]pyrazine-7-carboxylic acid ((S)-1,2,2-trimethyl-propyl)-amide]
pIC50: 9.24

CC(C)NC(=O)c1c[nH]c2ncc(Oc3cccc(C(C)(C)C)c3)nc12 [Example I-231, 2-(3-tert-Butyl-phenoxy)-5H-pyrrolo[2,3-b]pyrazine-7-carboxylic acid isopropylamide]
pIC50: 5.37

CCNC(=O)c1c[nH]c2ncc(Oc3cccc4ccccc34)nc12 [Example I-261, 2-(Naphthalen-1-yloxy)-5H-pyrrolo[2,3-b]pyrazine-7-carboxylic acid ethylamide]
pIC50: 5.52

CCNC(=O)c1c[nH]c2ncc(Oc3cccc(CC)c3)nc12 [Example I-249, 2-(3-Ethyl-phenoxy)-5H-pyrrolo[2,3-b]pyrazine-7-carboxylic acid ethylamide]
pIC50: 5.80

C[C@H](NC(=O)c1c[nH]c2ncc(-c3ccc(C(=O)N4CCN(C)CC4)s3)nc12)C(C)(C)C [Example I-161, 2-[5-(4-Methyl-piperazine-1-carbonyl)-thiophen-2-yl]-5H-pyrrolo[2,3-b]pyrazine-7-carboxylic acid ((S)-1,2,2-trimethyl-propyl)-amide]
pIC50: 9.49

CCNC(=O)c1c[nH]c2ncc(Oc3cccc(C(C)(C)C)c3)nc12 [Example I-247, 2-(3-tert-Butyl-phenoxy)-5H-pyrrolo[2,3-b]pyrazine-7-carboxylic acid ethylamide]
pIC50: 5.19

C[C@H](NC(=O)c1c[nH]c2ncc(-c3ccc(C(=O)N4CCC(C#N)CC4)s3)nc12)C(C)(C)C [Example I-167, 2-[5-(4-Cyano-piperidine-1-carbonyl)-thiophen-2-yl]-5H-pyrrolo[2,3-b]pyrazine-7-carboxylic acid ((S)-1,2,2-trimethyl-propyl)-amide]
pIC50: 9.49
